Earlier results in patent US20100111901A1, “TRIAZOLE INHIBITORS OF AROMATASE” (priority 2008, published 2010).

Experiments:
CYP2D6 = CYP2D6 (Homo sapiens, UniProt P10635)
CYP2A6 = CYP2A6 (Homo sapiens, UniProt P11509)
CYP1A2 = CYP1A2 (Homo sapiens, UniProt P05177); settings: strongest in decreasing order of magnitude
[1] = in vivo

Sequence of CYP1A2 (P05177 whole entry): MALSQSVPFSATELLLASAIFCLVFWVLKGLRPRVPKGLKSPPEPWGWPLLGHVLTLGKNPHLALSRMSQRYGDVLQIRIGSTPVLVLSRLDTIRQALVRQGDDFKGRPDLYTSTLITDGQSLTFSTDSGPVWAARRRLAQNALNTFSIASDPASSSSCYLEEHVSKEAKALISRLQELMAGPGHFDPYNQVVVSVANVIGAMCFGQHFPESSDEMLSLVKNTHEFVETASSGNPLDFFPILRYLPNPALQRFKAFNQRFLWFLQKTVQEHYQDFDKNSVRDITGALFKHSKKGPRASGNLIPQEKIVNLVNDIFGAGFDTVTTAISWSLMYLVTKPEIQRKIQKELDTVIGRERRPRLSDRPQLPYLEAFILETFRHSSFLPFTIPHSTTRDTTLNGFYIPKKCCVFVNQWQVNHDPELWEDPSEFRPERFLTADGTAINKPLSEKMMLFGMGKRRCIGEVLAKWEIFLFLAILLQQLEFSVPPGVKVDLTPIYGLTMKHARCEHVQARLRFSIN
Sequence of CYP2A6 (P11509 whole entry): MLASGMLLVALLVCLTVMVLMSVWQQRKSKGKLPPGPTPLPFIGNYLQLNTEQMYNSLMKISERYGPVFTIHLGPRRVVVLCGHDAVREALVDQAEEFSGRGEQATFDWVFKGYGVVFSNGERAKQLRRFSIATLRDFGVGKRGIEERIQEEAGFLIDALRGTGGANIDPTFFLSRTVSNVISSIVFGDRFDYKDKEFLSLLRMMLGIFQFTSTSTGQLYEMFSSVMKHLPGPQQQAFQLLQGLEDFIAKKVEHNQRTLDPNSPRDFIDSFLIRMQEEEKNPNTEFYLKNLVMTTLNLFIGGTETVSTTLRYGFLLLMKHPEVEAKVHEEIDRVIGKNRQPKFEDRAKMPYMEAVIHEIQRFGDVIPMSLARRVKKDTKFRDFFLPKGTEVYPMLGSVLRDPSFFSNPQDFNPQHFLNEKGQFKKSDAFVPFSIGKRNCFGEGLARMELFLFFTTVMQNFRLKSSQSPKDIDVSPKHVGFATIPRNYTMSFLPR
Sequence of CYP2D6 (P10635 whole entry): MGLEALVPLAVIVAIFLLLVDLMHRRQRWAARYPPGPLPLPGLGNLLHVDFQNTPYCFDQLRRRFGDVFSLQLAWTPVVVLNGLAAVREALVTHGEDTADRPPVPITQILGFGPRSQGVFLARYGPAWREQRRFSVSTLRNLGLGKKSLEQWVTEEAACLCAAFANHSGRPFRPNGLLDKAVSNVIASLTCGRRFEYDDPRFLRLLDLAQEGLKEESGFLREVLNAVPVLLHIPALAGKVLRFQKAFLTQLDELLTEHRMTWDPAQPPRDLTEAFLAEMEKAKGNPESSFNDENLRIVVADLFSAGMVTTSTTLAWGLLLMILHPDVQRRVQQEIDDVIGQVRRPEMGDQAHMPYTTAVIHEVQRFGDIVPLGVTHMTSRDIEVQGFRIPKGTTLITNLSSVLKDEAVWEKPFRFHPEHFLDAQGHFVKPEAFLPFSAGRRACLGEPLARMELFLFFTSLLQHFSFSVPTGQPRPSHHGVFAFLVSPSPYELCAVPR

In the case of CC(C)(C#N)c1cc(Cn2cncn2)cc(C(C)(C)C#N)c1 [Anastrozole, 2-[3-(2-cyano-2-propyl)-5-(1,2,4-triazol-1-ylmethyl)phenyl]-2-methylpropiononitrile], the “effect on CYP2D6” value (CYP2D6) is given as “no effect”, the “effect on CYP2A6” value (CYP2A6) is given as “no effect” and the “inhibition of CYP1A2” value (CYP1A2) is given as “inhibits”. The “mean terminal elimination half-life” value [1] was 40 to 50 h.
